Several values for one entry are separate records, joined by “and”; a condition that tells them apart may be missing. Equal entries are not always repeated.

This is an account of results in publication PMC11520566, “Discovery of pyrazole-based analogs as CDK2 inhibitors with apoptotic-inducing activity: design, synthesis and molecular dynamics study” (RSC Advances, 2024).

One data set concerns the target T1, CDK2/cyclin A2 (Homo sapiens, UniProt P24941).
T1 construct: purchased Promega
Put plainly: In vitro CDK2/cyclin A2 enzyme inhibition assay (ADP-Glo). The following applies: for percentage enzyme activity: at 50 μM; for IC50: n = 3, read-out: IC50 against CDK2/cyclin A2; for Relative activity: supplement S1, DMSO = 100, screen at 50 μM. The class given is biochemical. The method, then: The studied pyrazoles 2a–g, 4, 7a–d, 8a and b, 9, and 10 were assessed for their in vitro CDK2/cyclin A2 enzyme inhibition assay at a concentration of 50 μM using the Promega CDK2/cyclinA2 kinase enzyme system coupled with the ADP-Glo assay.[32,33] The percentage enzyme activity was the lowest for five compounds, namely 4, 7a, 7d, 8a, and 9 with values of 24.7%, 17.5%, 11.5%, 27.1% and 14.5%, respectively.
The in vitro assay of CDK2/cyclin A2 protein kinase was carried out on all the synthesized compounds. The kinase assay was performed in a 96-well white plate with a reaction volume of […]. The reaction was performed in four steps as follows: 2.5 μL of the test compounds or 5% DMSO and 5 μL of CDK2/cyclin A2 enzyme (1.6 ng) was added, and then incubated at room temperature for 30 min. Then, 5 μL of 50 μM ATP. 0.1 μg μL^−1 histone H1 was added and incubated for 10 min. The reaction was stopped by adding 12.5 μL of ADP-Glo™ Reagent and incubated for 40 min. Then 25 μL of kinase detection reagent was added to each well and incubated for 60 min before detection with luminescence (Integration time 0.5–1 s).[25,32,33]

In the next data set the test system is MCF7. Nature of the data set: NCI 60 single dose screen, Breast cancer. The class given is cell-based, human. The following applies: single dose 10 μM. Here is the method:
(§1) The newly synthesized pyrazoles 2a–g, 7a–d, 8a and b, 9, and 10 were submitted to the National Cancer Institute (NCI) Developmental Therapeutics Program (http://www.dtp.nci.nih.gov) for assessment of their potential antiproliferative activity against a panel of NCI 60 cancer cell lines. All compounds were approved for screening against the approved 60 cancer cell lines at a single dose of 10 μM. The human cancer cell lines were derived from 9 variant cancer types including leukemia, melanoma, lung, colon, CNS, ovarian, renal, prostate and breast cancers. The results are presented as percentage of growth inhibition (GI%) of the screened compounds against the full panel of cell lines.
(§2) Under sterile conditions, the cell lines were grown in RPMI 1640 media (Gibco, NY, USA) supplemented with 10% fetal bovine serum (Biocell, CA, USA), and […] cell/mL was used to test the growth inhibition activity of the synthesized compounds. The compounds with concentrations ranging from 0.01 to 100 μM were prepared in phosphate buffer saline. Each compound was initially solubilized in dimethyl sulfoxide (DMSO); however, each final dilution contained less than 1% DMSO. Solutions of different concentrations (0.2 mL) were pipetted into the separate well of a microtiter tray in duplicate. Cell culture (1.8 mL) containing a cell population of […] cells per mL was pipetted into each well. Controls, containing only phosphate buffer saline and DMSO at identical dilutions, were also prepared in the same manner. These cultures were incubated in a humidified incubator at 37 °C. The incubator was supplied with 5% CO2 atmosphere. After 48 h, the cells in each well were diluted 10 times with saline and counted using a Coulter counter. The counts were corrected for the dilution.[34]

Data set [1] has as its system CDK2. The settings on record: cited from earlier work; for IC50: CDK2.
The subject of a further data set is NCI 60 cancer cell lines. Nature of the data set: NCI 60 single dose screen, mean over full panel. The class given is cell-based, human. The following applies: mean over NCI 60 cell lines; single dose 10 μM. Here is the method:
as §1, §2

The subject of the next data set is MDA-MB-468. Put plainly: NCI 60 single dose screen, Breast cancer. The following applies: single dose 10 μM. The class given is cell-based, human. Here is the method:
as §1, §2

Data set [2] relates to CDK2. Nature of the data set: Western blot of CDK2 expression in HCT-116 cells. The class given is cell-based. The settings on record: 1 μM, 48 h, vs vehicle treated cells. An excerpt: The method of sodium dodecyl sulfate polyacrylamide gel electrophoresis (SDS-PAGE) is employed to separate proteins based on their size. When combined with western blotting (immunoblotting), both techniques are commonly used to identify the presence and/or relative abundance of a specific protein within a sample containing a complex mixture of proteins.[36] In this process, each sample's total protein content is loaded onto a gel and separated by electrophoresis, allowing proteins to migrate through the gel matrix under the influence of an electric current. To facilitate protein migration, the proteins are initially denatured and given a negative charge by exposure to a detergent like SDS. A molecular weight marker with known-sized bands assists in identifying proteins of interest. […] Typically, the secondary antibody is linked to an enzyme that generates luminescence upon reacting with its substrate. The intensity of the luminescence, directly correlating with the amount of protein that interacted with the antibody, is captured by a Bio-Rad Imager.[36] […]
HCT-116 cells were treated with either 3 μM of compound 4 and 1 μM of compound 9 and incubated 48 h. The cells were lysed by 1× RIPA buffer containing protease and phosphatase inhibitors to quantify the protein concentration by BCA protein assay. […]
On the technique in general: In western blotting, separated proteins are transferred to a membrane and probed.

For another data set, the system named is CCRF-CEM. Put plainly: NCI 60 single dose screen, Leukemia. The class given is cell-based, human. The settings on record: single dose 10 μM. The method, then:
as §1, §2

The test system of the next data set is SK-MEL-2. Nature of the data set: NCI 60 single dose screen, Melanoma. The class given is cell-based, human. The settings on record: single dose 10 μM. The method, then: as §1, §2
In the next data set the test system is MALME-3M. Nature of the data set: NCI 60 single dose screen, Melanoma. The class given is cell-based, human. The following applies: single dose 10 μM. The method, then: as §1, §2
Another data set in a line: in vitro. The following applies: human.
Another data set relates to HCT-116 cell line. Put plainly: MTT cell viability assay. The class given is cell-based. The following applies: Homo sapiens, read-out: IC50 (cytotoxicity, MTT). On the technique in general: Tetrazolium dyes change colour on reduction, which living cells bring about.
The next data set deals with T-47D. Put plainly: NCI 60 single dose screen, Breast. The class given is cell-based, human. The following applies: single dose 10 μM. Here is the method:
as §1
Under sterile conditions, the cell lines were grown in RPMI 1640 media (Gibco, NY, USA) supplemented with 10% fetal bovine serum (Biocell, CA, USA), and […] cell/mL was used to test the growth inhibition activity of the synthesized compounds. The compounds with concentrations ranging from 0.01 to 100 μM were prepared in phosphate buffer saline. Each compound was initially solubilized in dimethyl sulfoxide (DMSO); however, each final dilution contained less than 1% DMSO. Solutions of different concentrations (0.2 mL) were pipetted into the separate well of a microtiter tray in duplicate. […] After 48 h, the cells in each well were diluted 10 times with saline and counted using a Coulter counter. […]

In data set [3] the test system is CDK 1, 2, 4, 6 and 9 isoforms. On the set-up: method as in PMID 18656911. The following applies: range over CDK 1, 2, 4, 6 and 9 isoforms; cited from earlier work.

A word on the melting point: it is the temperature of the solid-liquid transition. Take `CN(C)c1ccc(C=Nc2[nH]nc(Nc3ccccc3)c2C#N)cc1` [Compound 7d, 5-((4-(Dimethylamino)benzylidene)amino)-3-(phenylamino)-1H-pyrazole-4-carbonitrile]: the melting point fell in the range of 284 to 285 °C. Moreover, on CDK2/cyclin A2, the percentage enzyme activity was found to be 11.5%, the IC50 was 1470 nM and the Relative activity is given as 11.5.

Turning to `N#Cc1c(Nc2ccccc2)n[nH]c1N=Cc1ccc(Cl)cc1` [Compound 7b, 5-((4-Chlorobenzylidene)amino)-3-(phenylamino)-1H-pyrazole-4-carbonitrile], the melting point fell in the range of 273 to 275 °C. Moreover, the Relative activity on CDK2/cyclin A2 is listed as 70.7.

`COc1ccc(C(=O)Nc2[nH]nc(Nc3ccccc3)c2C#N)cc1` [Compound 8b, N-(4-Cyano-3-(phenylamino)-1H-pyrazol-5-yl)-4-methoxybenzamide] registered a melting point of 233 to 235 °C. Further, at CDK2/cyclin A2, the IC50 is 18700 nM and the Relative activity is 27.1.

`N#Cc1c(Nc2ccccc2)n[nH]c1N=Cc1ccc(F)cc1` [Compound 7a, 5-((4-Fluorobenzylidene)amino)-3-(phenylamino)-1H-pyrazole-4-carbonitrile]: the melting point is 265 to 267 °C. Besides, at CDK2/cyclin A2, the IC50 was 2000 nM and 2010 nM; the Relative activity is 42.3.

“5-((4-Methoxybenzylidene)amino)-3-(phenylamino)-1H-pyrazole-4-carbonitrile [Compound 7c]” returned a GI% with MCF7 of 79.41%. The compound also returned a Relative activity on CDK2/cyclin A2 of 68.6.

Take `NC(=O)c1ccc(-c2ccc(F)c(C(=O)Nc3c[nH]nc3C(=O)Nc3ccc(F)cc3)c2F)cn1` [DC-K2in212 (IV)]: in the data set with CDK2 [1], the IC50 is 295 nM and the “selectivity against CDK2 over CDK1” value is reported as 17 fold.

Turning to `Nc1n[nH]c(N)c1/N=N/c1ccc(O)cc1` [CAN508 (III)], the IC50 with CDK2 [1] is 350 nM.

Consider `Cc1ccc(NN=C2C(=O)NN=C2Nc2ccccc2)cc1` [Compound 2e, 5-(Phenylamino)-4-(2-(p-tolyl)hydrazono)-2,4-dihydro-3H-pyrazol-3-one], for which the melting point was in the range of 251 to 253 °C. Moreover, in the data set with NCI 60 cancer cell lines, the “mean GI%” value was found to be 6.87%. Further, the Relative activity at CDK2/cyclin A2 came out at 56.6.

The compound `O=C1NN=C(Nc2ccccc2)C1=NNc1ccc(O)cc1` [Compound 2d, 4-(2-(4-Hydroxyphenyl)hydrazono)-5-(phenylamino)-2,4-dihydro-3H-pyrazol-3-one] returned a melting point of 257 to 259 °C. Further, the “mean GI%” value in the data set with NCI 60 cancer cell lines was found to be 27.12%. The compound further registered a Relative activity on CDK2/cyclin A2 of 40.2.

On CDK2/cyclin A2, “4-Chloro-N-(4-cyano-3-(phenylamino)-1H-pyrazol-5-yl)benzamide [Compound 8a]” returned a percentage enzyme activity of 27.1% and a Relative activity of 56.4.

On to `CC(=O)c1ccc(NN=C2C(=O)NN=C2Nc2ccccc2)cc1` [Compound 2g, 4-(2-(4-Acetylphenyl)hydrazono)-5-(phenylamino)-2,4-dihydro-3H-pyrazol-3-one], for which the melting point is 265 to 267 °C. For the same compound, the Relative activity on CDK2/cyclin A2 is given as 59.5.

As to `O=C1NN=C(Nc2ccccc2)C1=NNc1ccc(F)cc1` [Compound 2b, 4-(2-(4-Fluorophenyl)hydrazono)-5-(phenylamino)-2,4-dihydro-3H-pyrazol-3-one], the melting point lay in the range of 239 to 240 °C. The compound further yielded a GI% in the data set on MDA-MB-468 of 72.25%. Further, the GI% in the data set with MCF7 is given as 86.1%. For the same compound, on CDK2/cyclin A2, the Relative activity stood at 55.6.

`N#Cc1c(Nc2ccccc2)n[nH]c1NCc1ccccc1` [Compound 9, 5-(benzylamino)-3-(phenylamino)-1H-pyrazole-4-carbonitrile] registered a melting point of 136 to 137 °C. Moreover, the “expression of CDK-2 (western blot)” value in the data set on CDK2 [2] was “inhibitions in the expression of CDK-2”. The compound further yielded a GI% with CCRF-CEM of 81.65%. In the data set with SK-MEL-2, this compound displayed a GI% of 79.33%. For the same compound, the GI% with MALME-3M stood at 78.10%. For the same compound, the “mean GI%” value in the data set with NCI 60 cancer cell lines is on record as 65.90%. The compound also gave an IC50 in the data set “in vitro” of 56800 nM. In addition, the IC50 in the data set with HCT-116 cell line turned out to be 10000 nM. On CDK2/cyclin A2, the percentage enzyme activity is 14.5%, the IC50 was 960 nM and the Relative activity turned out to be 14.5. This compound had a GI% in the data set with T-47D of 82.76%.

As for `O=C1NN=C(Nc2ccccc2)C1=NNc1ccc(Cl)cc1` [Compound 2c, 4-(2-(4-Chlorophenyl)hydrazono)-5-(phenylamino)-2,4-dihydro-3H-pyrazol-3-one], the melting point is 249 to 251 °C. In the data set with MCF7, this compound registered a GI% of 77.1%. This compound also gave a Relative activity on CDK2/cyclin A2 of 59.3.

In the case of `CC(=O)N(C(C)=O)c1[nH]nc(Nc2ccccc2)c1C#N` [Compound 10, N-acetyl-N-(4-cyano-3-(phenylamino)-1H-pyrazol-5-yl)acetamide], the melting point lay in the range of 173 to 175 °C. Besides, the Relative activity at CDK2/cyclin A2 was 49.9.

`COc1ccc(NN=C2C(=O)NN=C2Nc2ccccc2)cc1` [Compound 2f, 4-(2-(4-Methoxyphenyl)hydrazono)-5-(phenylamino)-2,4-dihydro-3H-pyrazol-3-one] gave a melting point of 240 to 242 °C. In addition, in the data set on NCI 60 cancer cell lines, the “mean GI%” value was 10.24%. The Relative activity on CDK2/cyclin A2 amounted to 62.1.

With `O=C1NN=C(Nc2ccccc2)C1=NNc1ccccc1` [Compound 2a, 5-(Phenylamino)-4-(2-phenylhydrazono)-2,4-dihydro-3H-pyrazol-3-one], the melting point lay in the range of 215 to 217 °C. Further, in the data set on MCF7, the GI% is on record as 73.8%. Further, at CDK2/cyclin A2, the Relative activity is reported as 51.4.

As for `O=C(NC1CCNCC1)c1n[nH]cc1NC(=O)c1c(Cl)cccc1Cl` [AT7519 (I), N-(4-Piperidinyl)-4-(2,6dichlorobenzoylamino)-1H-pyrazole-3-carboxamide], the IC50 in data set [3] was […].
